Results on one molecule are retold here after patent publication US11161843B2, “Fused heterocyclic compound and composition containing same” (Sumitomo Chemical Company, Limited, priority 2017, dated 2021).

Assay [1] relates to brown planthopper (Nilaparvata lugens). The assay can be described thus: Test Example 3: spray on rice seedling, brown planthopper larvae. Conditions: 500 ppm, spray 10 mL/seedling, 3rd instar larvae, counted after 6 days. It is filed as in vivo. The procedure: The test compounds were made to a formulation according to the method described in the Formulation Example 5, and thereto was added water containing 0.03 v/v % of a spreader to prepare a diluted solution containing a prescribed concentration of the test compound.
Rice (Oryza sativa) seedling (on the developmental stage of the second true leaf) was planted in a container, and the diluted solutions were sprayed into the seedling in a ratio of 10 mL/seedling. Thereafter, 20 of 3rd instar larvae of brown planthopper (Nilaparvata lugens) were released onto the rice leaves. After 6 days, the number of the surviving insects was examined, and the mortality was calculated by the following equation. Mortality (%)={1−the number of the surviving insects/20}×100

In another assay the test system is cotton aphid. The assay can be described thus: Test Example 2: irrigation into plant foot of cucumber seedling, cotton aphid inoculated after 7 days. It is filed as in vivo, Aphis gossypii. The settings on record: 1,000 ppm, 5 mL/seedling irrigated into plant foot, aphids inoculated after 7 days, counted after additional 6 days. The protocol: The test compounds were made to a formulation according to the method described in the Formulation Example 5, and thereto was added water to prepare a diluted solution containing a prescribed concentration of the test compound. Cucumber seedling (on the developmental stage of the second true leaf) was planted in a container, and the diluted solutions in the ratio on 5 mL/seedling were irrigated into the plant foot. After 7 days, approximately 30 of cotton aphid (all stages of life) were inoculated onto the cucumber leaves. After additional 6 days, the number of the surviving insects was examined, and the controlling value was calculated by the following equation. Controlling value (%)={1−(Cb×Tai)/(Cai×Tb)}*100 wherein the symbols in the formula represent the following descriptions. Cb: Number of the test insects in untreated group; Cai: Number of the surviving insects at the time of the investigation in untreated group; Tb: Number of the test insects in treated group; Tai: Number of the surviving insects at the time of the investigation in treated group; Here the “untreated group” represents a group where a similar treatment procedure to that of the treated group except not using the test compound is done.

For the molecule `CCS(=O)(=O)c1ccc2nncn2c1-c1ccc(OCC(F)(F)C(F)(F)F)cn1` [compound 4], the controlling value (in assay [1]; in the assay with cotton aphid) was no less than 90% throughout.
